{
  "source": "paper PMC4890880",
  "about": "(ACS infectious diseases, 2016)",
  "key": {"[1]": {"test_system": "Plasmodium berghei (Pb-Luc) exoerythrocytic-stage parasites", "details": "for IC50: read-out: PbLuc_IC50"}, "HepG2-A16-CD81EGFP cells": {"test_system": "HepG2-A16-CD81EGFP cells", "details": "for IC50: read-out: Tox_IC50, HepG2 cytotoxicity"}, "[2]": {"details": "2nd round, maximal inhibition in dose series"}},
  "note": "Like-named read-outs stand apart in the source and are kept apart here.",
  "data": [
    {"smiles": "C[C@H]1CN([C@@H](C)CO)C(=O)c2cccc(NC(=O)c3ccc(-c4nccs4)cc3)c2O[C@@H]1CN(C)C(=O)Nc1ccc(C(F)(F)F)cc1", "note": "[BRD-K03390828-001-01-5]", "values": [
      {"measurement": "PbLuc_max_inhibition (%)", "setting": "[1]; [2]", "value": 34, "unit": "%"},
      {"measurement": "normalized signal at 0.000508053 (first series)", "setting": "[1]; concentration 0.000508053, first replicate series, fraction of control", "value": 0.9377},
      {"measurement": "normalized signal at 0.000508053 (second series)", "setting": "[1]; concentration 0.000508053, second replicate series, fraction of control", "value": 0.6684},
      {"measurement": "normalized signal at 0.00152416 (first series)", "setting": "[1]; concentration 0.00152416, first replicate series, fraction of control", "value": 0.8855},
      {"measurement": "normalized signal at 0.00152416 (second series)", "setting": "[1]; concentration 0.00152416, second replicate series, fraction of control", "value": 0.8915},
      {"measurement": "normalized signal at 0.00457247 (first series)", "setting": "[1]; concentration 0.00457247, first replicate series, fraction of control", "value": 0.8808},
      {"measurement": "normalized signal at 0.00457247 (second series)", "setting": "[1]; concentration 0.00457247, second replicate series, fraction of control", "value": 0.7577},
      {"measurement": "normalized signal at 0.0137174 (first series)", "setting": "[1]; concentration 0.0137174, first replicate series, fraction of control", "value": 0.9989},
      {"measurement": "normalized signal at 0.0137174 (second series)", "setting": "[1]; concentration 0.0137174, second replicate series, fraction of control", "value": 0.749},
      {"measurement": "normalized signal at 0.0411523 (first series)", "setting": "[1]; concentration 0.0411523, first replicate series, fraction of control", "value": 0.8536},
      {"measurement": "normalized signal at 0.0411523 (second series)", "setting": "[1]; concentration 0.0411523, second replicate series, fraction of control", "value": 0.9352},
      {"measurement": "normalized signal at 0.123457 (first series)", "setting": "[1]; concentration 0.123457, first replicate series, fraction of control", "value": 0.9414},
      {"measurement": "normalized signal at 0.123457 (second series)", "setting": "[1]; concentration 0.123457, second replicate series, fraction of control", "value": 0.925},
      {"measurement": "normalized signal at 0.37037 (first series)", "setting": "[1]; concentration 0.37037, first replicate series, fraction of control", "value": 0.9548},
      {"measurement": "normalized signal at 0.37037 (second series)", "setting": "[1]; concentration 0.37037, second replicate series, fraction of control", "value": 0.6557},
      {"measurement": "normalized signal at 1.11111 (first series)", "setting": "[1]; concentration 1.11111, first replicate series, fraction of control", "value": 1.032},
      {"measurement": "normalized signal at 1.11111 (second series)", "setting": "[1]; concentration 1.11111, second replicate series, fraction of control", "value": 0.7805},
      {"measurement": "normalized signal at 3.33333 (first series)", "setting": "[1]; concentration 3.33333, first replicate series, fraction of control", "value": 1.162},
      {"measurement": "normalized signal at 3.33333 (second series)", "setting": "[1]; concentration 3.33333, second replicate series, fraction of control", "value": 0.8715},
      {"measurement": "normalized signal at 10 (first series)", "setting": "[1]; concentration 10, first replicate series, fraction of control", "value": 0.7935},
      {"measurement": "normalized signal at 10 (second series)", "setting": "[1]; concentration 10, second replicate series, fraction of control", "value": 0.8747},
      {"measurement": "IC50", "setting": "[1]; 2nd round, Broad DOS compounds, unit not printed (dose series head 10 to 0.000508053)", "value": "> 10", "unit": "µM"},
      {"measurement": "Tox_max_inhibition (%)", "setting": "HepG2-A16-CD81EGFP cells; [2]", "value": 6.57, "unit": "%"},
      {"measurement": "IC50", "setting": "HepG2-A16-CD81EGFP cells; 2nd round, unit inferred", "value": "> 10", "unit": "µM"}
    ]},
    {"smiles": "COc1ccc(CNC(=O)C[C@H]2CC[C@@H](NC(=O)CN(C)C)[C@H](CO)O2)cc1", "note": "[BRD-K05060234-001-01-0]", "values": [
      {"measurement": "normalised signal at concentration 0.000508053 (first series)", "setting": "[1]; concentration 0.000508053, first series", "value": 0.9876},
      {"measurement": "normalised signal at concentration 0.000508053 (second series)", "setting": "[1]; concentration 0.000508053, second series", "value": 0.95},
      {"measurement": "normalised signal at concentration 0.00152416 (first series)", "setting": "[1]; concentration 0.00152416, first series", "value": 0.9394},
      {"measurement": "normalised signal at concentration 0.00152416 (second series)", "setting": "[1]; concentration 0.00152416, second series", "value": 1.006},
      {"measurement": "normalised signal at concentration 0.00457247 (first series)", "setting": "[1]; concentration 0.00457247, first series", "value": 1.108},
      {"measurement": "normalised signal at concentration 0.00457247 (second series)", "setting": "[1]; concentration 0.00457247, second series", "value": 1.09},
      {"measurement": "normalised signal at concentration 0.0137174 (first series)", "setting": "[1]; concentration 0.0137174, first series", "value": 1.028},
      {"measurement": "normalised signal at concentration 0.0137174 (second series)", "setting": "[1]; concentration 0.0137174, second series", "value": 1.083},
      {"measurement": "normalised signal at concentration 0.0411523 (first series)", "setting": "[1]; concentration 0.0411523, first series", "value": 1.04},
      {"measurement": "normalised signal at concentration 0.0411523 (second series)", "setting": "[1]; concentration 0.0411523, second series", "value": 1.112},
      {"measurement": "normalised signal at concentration 0.123457 (first series)", "setting": "[1]; concentration 0.123457, first series", "value": 1.099},
      {"measurement": "normalised signal at concentration 0.123457 (second series)", "setting": "[1]; concentration 0.123457, second series", "value": 1.024},
      {"measurement": "normalised signal at concentration 0.37037 (first series)", "setting": "[1]; concentration 0.37037, first series", "value": 1.009},
      {"measurement": "normalised signal at concentration 0.37037 (second series)", "setting": "[1]; concentration 0.37037, second series", "value": 0.9385},
      {"measurement": "normalised signal at concentration 1.11111 (first series)", "setting": "[1]; concentration 1.11111, first series", "value": 1.251},
      {"measurement": "normalised signal at concentration 1.11111 (second series)", "setting": "[1]; concentration 1.11111, second series", "value": 1.0925},
      {"measurement": "normalised signal at concentration 3.33333 (first series)", "setting": "[1]; concentration 3.33333, first series", "value": 1.234},
      {"measurement": "normalised signal at concentration 3.33333 (second series)", "setting": "[1]; concentration 3.33333, second series", "value": 0.8448},
      {"measurement": "normalised signal at concentration 10 (first series)", "setting": "[1]; concentration 10, first series of dose columns", "value": 0.9455},
      {"measurement": "normalised signal at concentration 10 (second series)", "setting": "[1]; concentration 10, second series of dose columns", "value": 0.8679},
      {"measurement": "IC50", "setting": "[1]; sheet \"2nd round\", Broad compounds, dose response top concentration 10", "value": "> 10", "unit": "µM"},
      {"measurement": "PbLuc_max_inhibition (%)", "setting": "[1]; sheet \"2nd round\"", "value": 16, "unit": "%"},
      {"measurement": "IC50", "setting": "HepG2-A16-CD81EGFP cells; sheet \"2nd round\"", "value": "> 10", "unit": "µM"},
      {"measurement": "Tox_max_inhibition (%)", "setting": "HepG2-A16-CD81EGFP cells; sheet \"2nd round\"", "value": 11, "unit": "%"}
    ]}
  ]
}
